Each structure is given as a SMILES string. Structures can show the parent of a compound that is named as a salt.

One may read the IC50 as the concentration that gives 50% inhibition.

The target of assay [1] is 5-HT1. Put plainly: Radioligand binding, tritiated 5-HT, rat frontal cortex homogenate (total 5-HT1). As to conditions: displacement of tritiated 5-HT. As to the method: Male Sprague-Dawley rats (150-200 g) were sacrificed and the brains were rapidly removed and placed on ice. The frontal cortext, including the portion immediately above the striatum and part of the parietal cortex were dissected. Tissues from 6-10 rats were pooled and homogenized in at least 40 volumes of tris-HCI buffer (0.05 M, pH 7.4) using a Brinkman Polytron (setting 5 for 20 seconds). This homogenate was centrifuged (48,000 G for 10 minutes), the pellet resuspended, and the process repeated three more times. Between the second and third washes, the tissue homogenate was incubated for 10 minutes at 37°C. The final pellet was resuspended in 100 volumes of TRIS buffer for use in the binding assay.
Radioligand binding affinity for subtypes of the serotonin receptor was determined by the method of Pedigo, Yamamura, and Nelson, op. cit. Tissue homogenate (0.5 mL) from rat frontal cortex, together with various concentrations of tritiated 5-HT and test compounds were added to glass tubes containing modified tris-HCI buffer to obtain, in each case, a final volume of 2 mL and having the following compositions: 5.7 mM ascorbate, 10 micromolar pargyline, 4mM CaCl2, 50 mM TRIS buffer; pH 7.4 at 37°C.
Each mixture was incubated for 15 minutes at 37°C and then vacuum filtered through Whatman GF/B filters followed by three 5 mL washes with cold TRIS buffer. Radioactivity was extracted overnight in 3 mL of scintillation liquid and measured by liquid scintillation spectrometry (50% efficiency).
Binding parameters for saturation and drug displacement studies were calculated by Scatchard analysis and from Hill plots, respectively.

Assay [2] deals with spontaneously hypertensive (SH) rat. Put plainly: Blood pressure in spontaneously hypertensive rats (tail cuff), oral dosing. The format is in vivo. The settings on record: % change in blood pressure.
Method: In another study, a group of spontaneously hypertensive male rats were trained to be restrained in a wire mesh cylinder in a warming box, at least two training cycles being conducted before testing. The rats were warmed for about one-hour prior to blood pressure measurement, the warming box being maintained at a constant temperature of 36°C. An occluding cuff attached to a programmed sphygmomanometer was placed near the base of the tail of each rat and the pressure of the cuff was increased automatically from 0 to 250 millimeters of mercury at a rate of 10 mm Hg pressure per second. The total time for each cycle of inflation and deflation of the cuff was 50 seconds and the interval between cycles was one minute A photocell, placed distally to the cuff, recorded the pulses due to the forward motion of blood flow with each heart beat. As the pressure in the cuff increased, the pulse disappeared completely at the point where the cuff pressure equalled and exceeded the arterial blood pressure. The pulse reappeared during deflation at approximately the same pressure. Five interference free signals were recorded for each rat. Rats with a blood pressure of 180 mm Hg or more during the control period were used in the study.
Blood pressure and heart rate readings were recorded on a Model VII Grass polygraph at various intervals after administration of the test compound. […] For the in vivo test data, SHR refers to spontaneously hypertensive rats, dosed in milligrams per kilogram (mpk), with the data being expressed in the Table in +% changes at a particular dosage range.

As for `COc1cccc2c1[C@H]1CCN(CCCN3C(=O)CC4(CCCC4)CC3=O)C[C@@H]1C2` (relative stereo) [Example 50, trans-2-(3-(3,3-tetramethylene)glutarimidyl)propyl-5-methoxy-2,3,4,4a,9,9a-hexahydro-1 H-indeno [2,1-c]pyridine hydrochloride], in assay [1], the IC50 turned out to be 279 nM.
`COc1cccc2c1[C@H]1CCN(CCCCN3C(=O)CC4(CCCC4)CC3=O)C[C@@H]1C2` (relative stereo) [Example 51, trans-2-(4-(3,3-tetramethylene)glutarimidyl)butyl-5-methoxy-2,3,4,4a,9,9a-hexahydro-1H-indeno [2,1-c] pyridine hydrochloride] displayed an IC50 in assay [1] of 60 nM. The “In Vivo Data SHR (mpk, p.o. dose)” value in assay [2] (30 mg/kg p.o.) is recorded as -36% at 30 mg/kg.
As to `COc1cccc2c1[C@H]1CCN(CCCN3C(=O)c4ccccc4S3(=O)=O)C[C@@H]1C2` (relative stereo) [Example 56, trans-2(3-(2-(1,2-benzisothiazolin-3-one-1,1-dioxyde))propyl)-5-methoxy-2,3,4,4a,9,9a-hexahydro-1 H-indeno[2,1-c]pyridine hydrochloride], the IC50 in assay [1] was found to be 22 nM. For the same compound, the “In Vivo Data SHR (mpk, p.o. dose)” value in assay [2] (10 mg/kg p.o.) is -18% at 10 mg/kg.
Regarding `COc1cccc2c1[C@H]1CCN(CCCCN3C(=O)c4ccccc4S3(=O)=O)C[C@@H]1C2` (relative stereo) [Example 57, trans-2(4-(2-(1,2-benzisothiazolin-3-one-1,1-dioxyde))butyl)-5-methoxy-2,3,4,4a,9,9a-hexahydro-1H-indeno[2,1-c]pyridine hydrochloride], the IC50 in assay [1] is 26 nM. Further, the “In Vivo Data SHR (mpk, p.o. dose)” value in assay [2] (30 mg/kg p.o.) is -17% at 30 mg/kg.
The compound `COc1cccc2c1C1CN(CCCCN3C(=O)CC4(CCCC4)CC3=O)CC1C2` (centres unmarked) [Example 7, 2-(4-(3,3-tetramethylene)glutarimidyl)butyl-4-methoxy-1,2,3,3a,8,8a-hexahydoindeno[1,2-c]pyrrole hydrochloride] returned an IC50 in assay [1] of 218 nM. Also, the “In Vivo Data SHR (mpk, p.o. dose)” value in assay [2] (10 mg/kg p.o.) was -14%; in assay [2] (30 mg/kg p.o.) it was -28%.
In assay [1], `COc1c(Cl)ccc2c1C1CN(CCCCN3C(=O)CC4(CCCC4)CC3=O)CC1C2` (centres unmarked) [Example 8, 2-(4-(3,3-tetramethylene)glutarimidyl)butyl-5-chroro-4-methoxy-1,2,3,3a,8,8a-hexahydroindeno[1,2-c] pyrrole hydrochloride] displayed an IC50 of 714 nM. Further, the “In Vivo Data SHR (mpk, p.o. dose)” value in assay [2] (30 mg/kg p.o.) is reported as -37% at 30 mg/kg.
On to `Br.O=C(NCCN1CC2Cc3cccc(O)c3C2C1)c1ccc(F)cc1` (centres unmarked) [Example 19, 4-Hydroxy-2-(2-(4-fluorobenzamido)ethyl)-1,2,3,3a,8,8a-hexahydroindeno[1,2-c]pyrrole hydrobromide], for which the IC50 in assay [1] came out at 262 nM. The “In Vivo Data SHR (mpk, p.o. dose)” value in assay [2] (30 mg/kg p.o.) was -9% at 30 mg/kg.
For the compound `O=C1CC2(CCCC2)CC(=O)N1CCCCN1CC2Cc3cccc(O)c3C2C1` (centres unmarked) [Example 20, 2-(4-(3,3-tetramethylene)glutarimidyl)butyl-4-hydroxy-1,2,3,3a,8,8a-hexahydroindeno[1,2-c]pyrrole hydrobromide], the IC50 in assay [1] was 1840 nM.
In assay [1], `COc1cccc2c1C1CN(CCCCN3C(=O)c4ccccc4S3(=O)=O)CC1C2` (centres unmarked) [Example 21, 4-Methoxy-2-(4-(2-(1,2-benzisothiazolin-3-one1,1-dioxide))butyl)1,2,3,3a,8,8a-hexahydroindeno-[1,2-c]pyrrole hydrochloride] had an IC50 of 438 nM. Besides, the figures for the “In Vivo Data SHR (mpk, p.o. dose)” value in assay [2] (10 mg/kg p.o.) and in assay [2] (30 mg/kg p.o.) were -16% and -28%, respectively.
Turning to `O=C1c2ccccc2S(=O)(=O)N1CCCCN1CC2Cc3cccc(O)c3C2C1` (centres unmarked) [Example 22, 4-Hydroxy-2-(4-(2-(1.2-benzisothiazolin-3-one-1,1-dioxide))butyl)-1,2,3,3a,8,8a-hexahydroindeno-[1,2-c]pyrrole hydrochloride], the IC50 in assay [1] was 1090 nM. For the same compound, in assay [2] (30 mg/kg p.o.), the “In Vivo Data SHR (mpk, p.o. dose)” value is -16% at 30 mg/kg.
As to `COc1cccc2c1C1CN(CCCCN3C(=O)CC(C)(C)CC3=O)CC1C2` (centres unmarked) [Example 23, 2-(4-(3,3-dimethyl)glutarimidyl)butyl-4-methoxy-1,2,3,3a,8,8a-hexahydroindeno-[1,2-c]pyrrole hydrochloride], the IC50 in assay [1] was determined as 1730 nM. Moreover, the “In Vivo Data SHR (mpk, p.o. dose)” value in assay [2] (30 mg/kg p.o.) was -12% at 30 mg/kg.
The compound `COc1cccc2c1C1CN(CCCCN3C(=O)c4ccccc4C3=O)CC1C2` (centres unmarked) [Example 24, 4-Methoxy-2-(4-(2-phthalimido)butyl)-1,2,3,3a,8,8a-hexahydroindeno[1,2-c]pyrrole hydrochloride] came in with an IC50 in assay [1] of 404 nM.
The compound `COc1cccc2c1C1CN(CCCN3C(=O)CC4(CCCC4)CC3=O)CC1C2` (centres unmarked) [Example 26, 2-(3-(3,3-tetramethylene)glutarimidyl)propyl-4-methoxy-1,2,3,3a,8,8a-hexahydroindeno[1,2-c]pyrrole hydrochloride] came in with an IC50 in assay [1] of 3300 nM. Also, the “In Vivo Data SHR (mpk, p.o. dose)” value in assay [2] (30 mg/kg p.o.) was -23% at 30 mg/kg.
Compound `O=C1CC2(CCCC2)CC(=O)N1CCCN1CC2Cc3cccc(O)c3C2C1` (centres unmarked) [Example 27, 2-(3-(3,3-tetramethylene)glutarimidyl)propyl-4-hydroxy-1,2,3,3a,8,8a-hexahydroindeno[1,2-c]pyrrole hydrobromide] registered an IC50 in assay [1] of 3320 nM.
Turning to `COc1cccc2c1C1CN(CCCCCN3C(=O)CC4(CCCC4)CC3=O)CC1C2` (centres unmarked) [Example 28, 2-(5-(3,3-tetramethylene)glutarimidyl)pentyl-4-methoxy-1,2,3,3a,8,8a-hexahydroindeno[1,2-c]pyrrole hydrochloride], the IC50 in assay [1] was found to be 722 nM.
Compound `COc1cccc2c1C1CN(C/C=C\CN3C(=O)CC4(CCCC4)CC3=O)CC1C2` (stereo not drawn) [Example 29, 2-(4-(3,3-tetramethylene)glutarimidyl)-cis-but-2-enyl-4-methoxy-1,2,3,3a,8,8a-hexahydroindeno [1,2-c] pyrrole hydrochloride] registered an IC50 in assay [1] of 3630 nM. Besides, in assay [2] (30 mg/kg p.o.), the “In Vivo Data SHR (mpk, p.o. dose)” value was -19% at 30 mg/kg.
As for `COc1cccc2c1C1CN(C/C=C/CN3C(=O)CC4(CCCC4)CC3=O)CC1C2` (stereo not drawn) [Example 30, 2-(4-(3,3-tetramethylene)glutarimidyl)-trans-but-2-enyl-4-methoxy-1,2,3,3a,8,8a-hexahydroindeno [1,2-c]pyrrole hydrochloride], the IC50 in assay [1] was determined as 533 nM. Besides, the “In Vivo Data SHR (mpk, p.o. dose)” value in assay [2] (30 mg/kg p.o.) is on record as -11% at 30 mg/kg.
With `COc1cccc2c1C1CN(C[C@H]3COc4ccccc4O3)CC1C2` (stereo partly drawn) [Example 31, 2S-(1,4-benzodioxanyl-2-methyl)-4-methoxy-1,2,3,3a,8,8a-hexahydroindeno[1,2-c]pyrrole hydrochloride], in assay [1], the IC50 came out at 457 nM.
The same measure, in the same setting: as for `COc1cccc2c1C1CN(C[C@@H]3COc4ccccc4O3)CC1C2` (stereo partly drawn) [Example 32, 2R-(1,4-benzodioxanyl-2-methyl)-4-methoxy-1,2,3,3a,8,8a-hexahydroindeno[1,2-c]pyrrole hydrochloride], the figure is 992 nM.
On to `COc1cccc2c1C1CCN(CCCN3C(=O)CC4(CCCC4)CC3=O)CC1C2` (stereo not drawn) [Example 43, cis-2-(3-(3,3-tetramethylene)glutarimidyl)propyl-5-methoxy-2,3,4,4a,9,9a-hexahydro-1H-indeno[2,1-c] pyridine hydrochloride], for which the IC50 in assay [1] was 3120 nM. For the same compound, the “In Vivo Data SHR (mpk, p.o. dose)” value in assay [2] (30 mg/kg p.o.) is listed as -17.5% at 30 mg/kg.
`COc1cccc2c1C1CCN(CCCCN3C(=O)CC4(CCCC4)CC3=O)CC1C2` (centres unmarked) [Example 44, hydrochloride]: in assay [1], the IC50 amounted to 505 nM.
For `O=C1CC2(CCCC2)CC(=O)N1CCCCN1CC2Cc3ccc(Cl)c(O)c3C2C1` (centres unmarked) [Example 52, 2-(4-(3,3-Tetramethylene)glutarimidyl)butyl-5-chloro-4-hydroxy-1,2,3,3a,8,8a-hexahydroindeno[1,2-c]-pyrrole hydrobromide], the IC50 in assay [1] was 1840 nM. Moreover, in assay [2] (30 mg/kg p.o.), the “In Vivo Data SHR (mpk, p.o. dose)” value was -23% at 30 mg/kg.
`COc1cccc2c1C1CN(CCCCN3C(=O)C4C5C=CC(C6C=CC65)C4C3=O)CC1C2` (centres unmarked) [Example 54, 4-Methoxy-2-(4-(3a,4,4a,6a,7,7a-hexahydro-4,7-etheno-1H-cyclobut[flisoindol-1,3-dionyl)-butyl)-1,2,3,3a,8,8a-hexahydroindeno-[1,2-c]pyrrole hydrochloride] returned an IC50 in assay [1] of 283 nM.
As for `COc1cccc2c1C1CCN(CCNC(=O)c3ccc(F)cc3)CC1C2` (stereo not drawn) [Example 58, trans-2-(2-(4-fluorobenzamido)ethyl)-5-methoxy-2,3,4,4a,9.9a-hexahydro-1H-indeno[2,1-c]pyridine hydrochloride], the IC50 in assay [1] is 43 nM. Moreover, the “In Vivo Data SHR (mpk, p.o. dose)” value in assay [2] (10 mg/kg p.o.) was -18% at 10 mg/kg.

The values are drawn from patent EP0422134B1, “5-HT SELECTIVE AGENTS” (ABBOTT LABORATORIES, priority 1988, dated 1990).
